From patent US6706664B1, “Benzoxazole compounds, process for the preparation thereof and herbicides” (UBE Industries, Ltd., priority 1999, dated 2004)

How the values were obtained:
Design in all cases: key: 0: normal development; 1: Less damaged; 2: Slightly damaged; 3: Moderately damaged; 4: Severely damaged; 5: All killed
young rice plant = assay: Herbicidal test for paddy field; assay type: in vivo; conditions: paddy field pot, 500 g/ha dropwise at 1.5 leaf stage of barnyardgrass, 3 weeks, rank vs non-treated
Outline: (§1)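 Under flooded conditions (3 cm water over Ube soil), each compound was delivered by pipet as a diluted wettable powder (0.05% surfactant) at 500 g/ha, timed to 1.5-leaf barnyardgrass. Plants stayed 3 weeks in a 25° C glasshouse before injury was graded from 0 (normal) to 5 (all killed).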

barnyardgrass [1] = assay: Herbicidal test for paddy field; assay type: in vivo, Echinochloa crusgalli; conditions: paddy field pot, 500 g/ha dropwise at 1.5 leaf stage of barnyardgrass, 3 weeks, rank vs non-treated
Outline: as §1

monochoria = assay: Herbicidal test for paddy field; assay type: in vivo, Monochoria vaginalis; conditions: paddy field pot, 500 g/ha dropwise at 1.5 leaf stage of barnyardgrass, 3 weeks, rank vs non-treated
Outline: as §1

corn = assay: Soil treatment test for upland field; assay type: in vivo; conditions: 500 g/ha, glass house 25° C., 3 weeks
Outline: (§2)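 Soil treatment, 500 g/ha, sprayed onto soil surface after sowing; alluvial Ube soil; 0.05% surfactant in diluent; glasshouse, avg 25° C, 3 wk; visual score 0–5 (5 = all killed).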

cotton = assay: Soil treatment test for upland field; assay type: in vivo; conditions: 500 g/ha, glass house 25° C., 3 weeks
Outline: as §2

solgum = assay: Soil treatment test for upland field; assay type: in vivo; conditions: 500 g/ha, glass house 25° C., 3 weeks
Outline: as §2

soybean = assay: Soil treatment test for upland field; assay type: in vivo; conditions: 500 g/ha, glass house 25° C., 3 weeks
Outline: as §2

sugar beat = assay: Soil treatment test for upland field; assay type: in vivo; conditions: 500 g/ha, glass house 25° C., 3 weeks
Outline: as §2

wheat = assay: Soil treatment test for upland field; assay type: in vivo; conditions: 500 g/ha, glass house 25° C., 3 weeks
Outline: as §2

Large crabgrass = assay: Soil treatment test for upland field; assay type: in vivo, Digitaria adscendens; conditions: 500 g/ha, glass house 25° C., 3 weeks
Outline: as §2

barnyardgrass [2] = assay: Soil treatment test for upland field; assay type: in vivo, Echinochloa crusgalli; conditions: 500 g/ha, glass house 25° C., 3 weeks
Outline: as §2

blackgrass [3] = assay: Soil treatment test for upland field; assay type: in vivo, Alopecurus aegualis; conditions: 500 g/ha, glass house 25° C., 3 weeks
Outline: as §2

annual bluegrass [4] = assay: Soil treatment test for upland field; assay type: in vivo, Poa annua; conditions: 500 g/ha, glass house 25° C., 3 weeks
Outline: as §2

livid amaranth [5] = assay: Soil treatment test for upland field; assay type: in vivo, Amaranthus lividus; conditions: 500 g/ha, glass house 25° C., 3 weeks
Outline: as §2

common lambsquartes = assay: Foliar spread test for upland field; assay type: in vivo, Chenopodium album; conditions: foliar spray 500 ppm, 3 weeks, rank vs non-treated
Outline: (§3)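 Two-week-old glasshouse seedlings on volcanic ash soil were treated by foliar spray at 500 ppm, with 0.5% surfactant in the diluent. Effects were graded visually after three weeks, from 0 for no injury to 5 for complete kill.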

livid amaranth [6] = assay: Foliar spread test for upland field; assay type: in vivo, Amaranthus lividus; conditions: foliar spray 500 ppm, 3 weeks, rank vs non-treated
Outline: as §3

morning glory = assay: Foliar spread test for upland field; assay type: in vivo, Ipomoea spps.; conditions: foliar spray 500 ppm, 3 weeks, rank vs non-treated
Outline: as §3

blackgrass [7] = assay: Foliar spread test for upland field; assay type: in vivo, Alopecurus aegualis; conditions: foliar spray 500 ppm, 3 weeks, rank vs non-treated
Outline: as §3

annual bluegrass [8] = assay: Foliar spread test for upland field; assay type: in vivo, Poa annua; conditions: foliar spray 500 ppm, 3 weeks, rank vs non-treated
Outline: as §3

Structure (SMILES) | Effect Young rice plant (young rice plant) | Effect Barnyardgrass (barnyardgrass [1]) | Effect Monochoria (monochoria) | Effects Corn (corn) | Effects Cotton (cotton) | Effects Solgum (solgum) | Effects Soybean (soybean) | Effects Sugar beat (sugar beat) | Effects Wheat (wheat) | Effects Large crabgrass (Large crabgrass) | Effects Barnyardgrass (barnyardgrass [2]) | Effects Blackgrass (blackgrass [3]) | Effects Annual bluegrass (annual bluegrass [4]) | Effects Livid amaranth (livid amaranth [5]) | Effects Common lambsquarters (common lambsquartes) | Effects Livid amaranth (livid amaranth [6]) | Effects Morning glory (morning glory) | Effects Blackgrass (blackgrass [7]) | Effects Annual bluegrass (annual bluegrass [8])
CCC(Oc1ccc(F)c(C(F)(F)F)c1)c1nc2cc(F)ccc2o1 (centres unmarked) [Compound 119, 1-(5-fluorobenzoxazol-2-yl)-1-(4-fluoro-3-(trifluoromethyl)phenoxy)propane] | 1 | 3 | 4 | 0 | 0 | 0 | 0 | 5 | 0 | 5 | 5 | 3 | 5 | 5 | 4 | 4 | 3 |  | 
CC(Oc1ccc(F)c(C(F)(F)F)c1)c1nc2cc(Cl)ccc2o1 (centres unmarked) [Compound 137] | 1 | 3 | 3 | 1 | 0 | 1 | 0 | 2 | 1 | 5 | 3 | 3 | 5 | 5 |  | 4 | 2 |  | 
CCC(Oc1cccc(C(F)(F)F)c1)c1nc2cc(Br)ccc2o1 (centres unmarked) [Compound 166] | 1 | 3 | 5 | 0 | 0 | 0 | 0 | 5 | 0 | 5 | 4 | 3 | 5 | 5 | 4 | 4 | 4 | 1 | 
CCCC(Oc1cccc(C(F)(F)F)c1)c1nc2cc(C#N)c(C#N)cc2o1 (centres unmarked) [Compound 317] | 1 | 3 | 5 | 2 | 0 | 1 | 1 | 5 | 1 | 5 | 3 | 5 | 5 | 5 | 5 | 5 |  | 2 | 5
CCC(Oc1cccc(C(F)(F)F)c1)c1nc2cc(F)c(C(F)(F)F)cc2o1 (centres unmarked) [Compound 471] |  | 5 | 5 |  | 1 | 3 | 2 | 5 | 1 | 5 | 5 | 5 | 5 | 5 | 5 | 5 | 5 | 3 | 3
CCCC(Oc1ccc(F)c(C(F)(F)F)c1)c1nc2cc(F)c(Cl)cc2o1 (centres unmarked) [Compound 494] |  | 5 | 5 | 1 | 0 | 1 | 0 | 5 | 1 | 5 | 4 | 5 | 5 | 5 | 4 | 5 | 2 |  | 
CCCC(Oc1cccc(C(F)(F)F)c1)c1nc2cc(F)c(Cl)cc2o1 (centres unmarked) [Compound 497] | 2 | 4 | 4 | 1 | 1 | 1 | 1 | 5 | 1 | 5 |  |  | 4 | 5 | 2 | 5 |  |  | 2
CCC(Oc1cccc(C#N)c1)c1nc2cc(F)c(Cl)cc2o1 (centres unmarked) [Compound 498] | 1 | 3 | 2 | 0 | 1 | 1 | 1 | 5 | 1 | 5 | 3 | 4 | 5 | 5 |  | 4 |  |  | 2
CCC(Oc1cccc(OC(F)(F)F)c1)c1nc2cc(C#N)c(C#N)cc2o1 (centres unmarked) [Compound 527] | 2 | 4 | 4 | 2 | 0 | 1 | 1 | 5 | 1 | 5 | 4 | 4 | 5 | 5 | 5 | 5 |  | 2 | 5
CCC(Oc1cccc(C(F)(F)F)c1)c1nc2cc(C#N)c(Cl)cc2o1 (centres unmarked) [Compound 529] |  | 5 | 5 | 1 |  | 1 | 1 | 5 |  | 5 | 5 | 5 | 5 | 5 | 5 | 5 | 3 | 4 | 4
